In the supplement of paper PMC10307832:

Assays:
Assay in all cases: relative viability (nuclei count vs DMSO), 5 days (fraction); higher = more cells survive
AZD8055 = compound: COc1ccc(-c2ccc3c(N4CCOC[C@@H]4C)nc(N4CCOC[C@@H]4C)nc3n2)cc1CO [AZD8055]
Procedure, shortened: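 Viability was read as treated-well nuclei divided by vehicle-well nuclei, using the median across plates. Lung cancer cell lines in 1536-well plates were kept overnight at 37 °C, pinned with five √10-spaced library-drug doses, and after 5 days were Hoechst-stained, imaged at 4× and counted in MetaXpress. Plates passed only with control CV below 25% and at least one doubling.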

AZD8055 + Phenformin = compound: COc1ccc(-c2ccc3c(N4CCOC[C@@H]4C)nc(N4CCOC[C@@H]4C)nc3n2)cc1CO [AZD8055] + N=C(N)NC(=N)NCCc1ccccc1 [Phenformin] (partner 250 µM)
Procedure, shortened: (§1)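 Cells from lung cancer lines were seeded into 1536-well plates and, one day later, dosed by pin tool. Treatments were either a single drug or a fixed dose of an anchor drug with five library-drug doses (not always all listed) in √10 steps. After 5 days, nuclei were stained in a one-step fixation (final 0.05% Triton X-100, 1% formaldehyde, 1 ug/ml Hoechst) and counted on 4× images, and relative viability is the treated-to-vehicle nuclei ratio, as the median of duplicate plates.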

AZD8055 + OSI-027 = compound: COc1ccc(-c2ccc3c(N4CCOC[C@@H]4C)nc(N4CCOC[C@@H]4C)nc3n2)cc1CO [AZD8055] + COc1cccc2cc(-c3nc([C@H]4CC[C@H](C(=O)O)CC4)n4ncnc(N)c34)[nH]c12 [OSI-027] (partner 0.5 µM)
Procedure, shortened: as §1

AZD8055 + Trametinib = compound: COc1ccc(-c2ccc3c(N4CCOC[C@@H]4C)nc(N4CCOC[C@@H]4C)nc3n2)cc1CO [AZD8055] + CC(=O)Nc1cccc(-n2c(=O)n(C3CC3)c(=O)c3c(Nc4ccc(I)cc4F)n(C)c(=O)c(C)c32)c1 [Trametinib] (partner 0.02 µM)
Procedure, shortened: as §1

Cell Line | relative viability (AZD8055; 0.01 µM) | relative viability (AZD8055; 0.03162 µM) | relative viability (AZD8055; 0.1 µM) | relative viability (AZD8055; 0.3162 µM) | relative viability (AZD8055; 1 µM) | relative viability (AZD8055 + Phenformin; first compound 0.01 µM) | relative viability (AZD8055 + Phenformin; first compound 0.03162 µM) | relative viability (AZD8055 + Phenformin; first compound 0.1 µM) | relative viability (AZD8055 + Phenformin; first compound 0.3162 µM) | relative viability (AZD8055 + Phenformin; first compound 1 µM) | relative viability (AZD8055 + OSI-027; first compound 0.01 µM) | relative viability (AZD8055 + OSI-027; first compound 0.03162 µM) | relative viability (AZD8055 + OSI-027; first compound 0.1 µM) | relative viability (AZD8055 + OSI-027; first compound 0.3162 µM) | relative viability (AZD8055 + OSI-027; first compound 1 µM) | relative viability (AZD8055 + Trametinib; first compound 0.01 µM) | relative viability (AZD8055 + Trametinib; first compound 0.03162 µM) | relative viability (AZD8055 + Trametinib; first compound 0.1 µM) | relative viability (AZD8055 + Trametinib; first compound 0.3162 µM) | relative viability (AZD8055 + Trametinib; first compound 1 µM)
HCC-78 | 1.03 | 0.837 | 0.615 | 0.395 | 0.457 | 0.684 | 0.64 | 0.437 | 0.386 | 0.35 | 0.415 | 0.392 | 0.326 | 0.352 | 0.366 | 0.819 | 0.596 | 0.597 | 0.409 | 0.349
HCC-366 | 1.11 | 0.963 | 0.907 | 0.698 | 0.354 | 0.737 | 0.449 | 0.592 | 0.23 | 0.168 | 1.08 | 1.01 | 0.845 | 0.437 | 0.288 | 0.35 | 0.217 | 0.166 | 0.0931 | 0.0678
HCC-827 | 1.13 | 1.1 | 1.11 | 0.876 | 0.768 | 0.426 | 0.395 | 0.416 | 0.349 | 0.288 | 0.798 | 0.746 | 0.809 | 0.604 | 0.641 | 0.499 | 0.445 | 0.364 | 0.264 | 0.258
HOP-62 | 1.09 | 0.922 | 1.08 | 0.639 | 0.54 | 0.717 | 0.628 | 0.585 | 0.462 | 0.294 | 0.902 | 0.795 | 0.87 | 0.585 | 0.453 | 0.423 | 0.338 | 0.27 | 0.195 | 0.194
IA-LM | 0.98 | 0.651 | 0.241 | 0.103 | 0.116 | – | – | – | – | – | – | – | – | – | – | – | – | – | – | –
LC-2-ad | 1.04 | 1.04 | 0.922 | 0.621 | 0.529 | 0.549 | 0.564 | 0.538 | 0.336 | 0.362 | 0.937 | 0.864 | 0.706 | 0.618 | 0.523 | 0.989 | 0.917 | 0.828 | 0.907 | 0.715
LCLC-97TM1 | 1.04 | 0.822 | 0.453 | 0.246 | 0.205 | 0.477 | 0.182 | 0.178 | 0.121 | 0.187 | 0.502 | 0.472 | 0.577 | 0.422 | 0.415 | 0.194 | 0.164 | 0.124 | 0.138 | 0.123
LCLC-103H | 0.945 | 0.86 | 0.86 | 0.609 | 0.519 | 0.307 | 0.291 | 0.268 | 0.206 | 0.224 | 0.444 | 0.437 | 0.44 | 0.356 | 0.32 | 0.628 | 0.636 | 0.469 | 0.456 | 0.425
LK-2 | 0.84 | 0.641 | 0.508 | 0.24 | 0.195 | 0.234 | 0.186 | 0.118 | 0.198 | 0.239 | 0.22 | 0.242 | 0.209 | 0.166 | 0.186 | 0.68 | 0.575 | 0.509 | 0.238 | 0.199
